Test results taken from US11649255B2, “Indazoles as hematopoietic progenitor kinase 1 (HPK1) inhibitors and methods using same” (1st Biotherapeutics, Inc., priority 2020, dated 2023).

Target: recombinant human HPK1 (Homo sapiens (Human), UniProt Q92918)
Experiment: HPK1 kinase assay (ADP-Glo)
Type: biochemical
Settings: 25 μM ATP, MBP substrate
In short: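 Activity was read as ADP formed, detected by ADP-Glo luminescence after the reaction of 5 ng recombinant human HPK1 with MBP and ATP (stocks 0.5 μg/μl and 25 μM) for 40 min at 30 °C. Buffer was Tris pH 7.5 with MgCl2, BSA and DTT, with compound in 0.5% DMSO. IC50 came from inhibition curves.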

recombinant human HPK1, sequence (Q92918 whole entry): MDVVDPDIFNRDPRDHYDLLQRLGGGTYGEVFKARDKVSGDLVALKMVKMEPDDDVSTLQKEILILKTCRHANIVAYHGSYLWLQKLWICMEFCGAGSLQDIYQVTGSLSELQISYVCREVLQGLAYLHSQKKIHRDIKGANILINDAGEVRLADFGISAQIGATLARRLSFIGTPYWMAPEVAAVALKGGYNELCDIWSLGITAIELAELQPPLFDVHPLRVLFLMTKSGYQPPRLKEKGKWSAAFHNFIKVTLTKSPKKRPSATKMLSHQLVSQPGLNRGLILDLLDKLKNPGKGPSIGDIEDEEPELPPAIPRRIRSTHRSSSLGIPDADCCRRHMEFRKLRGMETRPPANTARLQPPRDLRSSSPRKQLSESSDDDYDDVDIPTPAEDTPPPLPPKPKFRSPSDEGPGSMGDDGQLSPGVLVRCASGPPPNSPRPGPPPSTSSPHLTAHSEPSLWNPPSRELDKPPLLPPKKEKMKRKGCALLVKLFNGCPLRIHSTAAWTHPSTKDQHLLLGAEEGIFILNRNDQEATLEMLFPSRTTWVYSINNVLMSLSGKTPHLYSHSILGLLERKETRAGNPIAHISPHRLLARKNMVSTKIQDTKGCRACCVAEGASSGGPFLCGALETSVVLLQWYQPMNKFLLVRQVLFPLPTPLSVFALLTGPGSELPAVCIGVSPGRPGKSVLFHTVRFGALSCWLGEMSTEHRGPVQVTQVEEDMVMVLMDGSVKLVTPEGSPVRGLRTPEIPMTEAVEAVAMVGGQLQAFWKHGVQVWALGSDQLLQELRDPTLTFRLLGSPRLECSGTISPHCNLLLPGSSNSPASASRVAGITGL

Structure (SMILES)	IC50 [nM]
CN(c1c(F)c(Cl)c(-c2ccn3nc(NC(=O)[C@@H]4C[C@@H]4F)cc3c2)c2cn[nH]c12)C1CCC(O)C1 (stereo partly drawn) [Example 555, (1S,2S)-N-(5-(5-chloro-6-fluoro-7-((3-hydroxycyclopentyl)(methyl)amino)-1H-indazol-4-yl)pyrazolo[1,5-a]pyridin-2-yl)-2-fluorocyclopropane-1-carboxamide]	< 100
O=C(Nc1cn2cc(-c3c(Br)ccc4[nH]ncc34)ccc2n1)C1CC1 [Example 228, N-(6-(5-bromo-1H-indazol-4-yl)imidazo[1,2-a]pyridin-2-yl)cyclopropanecarboxamide]	> 1000
CCN(CC)c1c(F)c(Cl)c(-c2ccc3nc(NC(=O)[C@@H]4C[C@@H]4F)sc3n2)c2cn[nH]c12 [Example 154, (1S,2S)-N-(5-(5-chloro-7-(diethylamino)-6-fluoro-1H-indazol-4-yl)thiazolo[5,4-b]pyridin-2-yl)-2-fluorocyclopropane-1-carboxamide]	< 100
Cc1c(F)c(C(=O)O)c2[nH]ncc2c1-c1ccc2nc(NC(=O)[C@@H]3C[C@@H]3F)cn2c1 [Example 313, 6-fluoro-4-(2-((1S,2S)-2-fluorocyclopropane-1-carboxamido)imidazo[1,2-a]pyridin-6-yl)-5-methyl-1H-indazole-7-carboxylic acid]	> 1000
Cc1c(F)c(C)c2[nH]ncc2c1-c1ccc2nc(NC(=O)[C@@H]3C[C@@H]3F)cn2c1 [Example 257, (1S,2S)-2-fluoro-N-(6-(6-fluoro-5,7-dimethyl-1H-indazol-4-yl)imidazo[1,2-a]pyridin-2-yl)cyclopropane-1-carboxamide]	< 100
O=C(Nc1cn2cc(-c3c(C4CC4)c(F)cc4[nH]ncc34)ccc2n1)C1CC1 [Example 241, N-(6-(5-cyclopropyl-6-fluoro-1H-indazol-4-yl)imidazo[1,2-a]pyridin-2-yl)cyclopropanecarboxamide]	> 1000
O=C(Nc1nc2ccc(-c3c(CF)ccc4[nH]ncc34)cc2s1)[C@@H]1C[C@@H]1F [Example 36, (1S,2S)-2-fluoro-N-(6-(5-(fluoromethyl)-1H-indazol-4-yl)benzo[d]thiazol-2-yl)cyclopropane-1-carboxamide]	101 to 500
Cc1c(F)c(C(F)F)c2[nH]ncc2c1-c1ccc2nc(NC(=O)[C@@H]3C[C@@H]3F)cn2c1 [Example 343, (1S,2S)-N-(6-(7-(difluoromethyl)-6-fluoro-5-methyl-1H-indazol-4-yl)imidazo[1,2-a]pyridin-2-yl)-2-fluorocyclopropane-1-carboxamide]	< 100
CN(C)c1c(F)cc(-c2ccc3nc(NC(=O)[C@@H]4C[C@@H]4F)sc3n2)c2cn[nH]c12 [Example 214, (1S,2S)-N-(5-(7-(dimethylamino)-6-fluoro-1H-indazol-4-yl)thiazolo[5,4-b]pyridin-2-yl)-2-fluorocyclopropane-1-carboxamide]	> 1000
O=C(Nc1nc2ccc(-c3c(Cn4cccn4)ccc4[nH]ncc34)cc2s1)[C@@H]1C[C@@H]1F [Example 38, (1S,2S)-N-(6-(5-((1H-pyrazol-1-yl)methyl)-1H-indazol-4-yl)benzo[d]thiazol-2-yl)-2-fluorocyclopropane-1-carboxamide]	> 1000
CN(C)c1ccc(-c2ccc3nc(NC(=O)[C@@H]4C[C@@H]4F)sc3n2)c2cn[nH]c12 [Example 216, (1S,2S)-N-(5-(7-(dimethylamino)-1H-indazol-4-yl)thiazolo[5,4-b]pyridin-2-yl)-2-fluorocyclopropane-1-carboxamide]	> 1000
Cc1c(F)c(Cl)c2[nH]nc(Cl)c2c1-c1ccc2nc(NC(=O)[C@@H]3C[C@@H]3F)sc2c1 [Example 53, (1S,2S)-N-(6-(3,7-dichloro-6-fluoro-5-methyl-1H-indazol-4-yl)benzo[d]thiazol-2-yl)-2-fluorocyclopropane-1-carboxamide]	101 to 500
CCc1ccc2[nH]ncc2c1-c1ccc2nc(NC(=O)C3CC3)sc2c1 [Example 28, N-(6-(5-ethyl-1H-indazol-4-yl)benzo[d]thiazol-2-yl)cyclopropanecarboxamide]	101 to 500
O=C(Nc1cn2cc(-c3c(C(F)(F)F)ccc4[nH]ncc34)ccc2n1)C1CC1 [Example 226, N-(6-(5-(trifluoromethyl)-1H-indazol-4-yl)imidazo[1,2-a]pyridin-2-yl)cyclopropanecarboxamide]	< 100
CSc1c(F)c(F)c2[nH]ncc2c1-c1ccc2nc(NC(=O)[C@@H]3C[C@@H]3F)cn2c1 [Example 304, (1S,2S)-N-(6-(6,7-difluoro-5-(methylthio)-1H-indazol-4-yl)imidazo[1,2-a]pyridin-2-yl)-2-fluorocyclopropane-1-carboxamide]	< 100
CO[C@H](C)[C@@H](OC)c1c(F)c(Cl)c(-c2ccc3nc(NC(=O)[C@@H]4C[C@@H]4F)cn3c2)c2cn[nH]c12 [Example 440, (1S,2S)-N-(6-(5-chloro-7-((1S,2R)-1,2-dimethoxypropyl)-6-fluoro-1H-indazol-4-yl)imidazo[1,2-a]pyridin-2-yl)-2-fluorocyclopropane-1-carboxamide]	< 100
COC(=O)c1c(F)c(Cl)c(-c2ccn3nc(NC(=O)[C@@H]4C[C@@H]4F)cc3c2)c2cn[nH]c12 [Example 554, methyl 5-chloro-6-fluoro-4-(2-((1S,2S)-2-fluorocyclopropane-1-carboxamido)pyrazolo[1,5-a]pyridin-5-yl)-1H-indazole-7-carboxylate]	< 100
Cc1c(F)c(Cl)c(-c2ccc3nc(NC(=O)[C@@H]4C[C@@H]4F)sc3n2)c2cn[nH]c12 [Example 211, (1S,2S)-N-(5-(5-chloro-6-fluoro-7-methyl-1H-indazol-4-yl)thiazolo[5,4-b]pyridin-2-yl)-2-fluorocyclopropane-1-carboxamide]	< 100
Cc1c(F)c(OC(F)(F)F)c2[nH]ncc2c1-c1ccc2nc(NC(=O)[C@@H]3C[C@@H]3F)cn2c1 [Example 345, (1S,2S)-2-fluoro-N-(6-(6-fluoro-5-methyl-7-(trifluoromethoxy)-1H-indazol-4-yl)imidazo[1,2-a]pyridin-2-yl)cyclopropane-1-carboxamide]	< 100
O=C(Nc1cn2cc(-c3c(Br)c(F)cc4[nH]ncc34)ccc2n1)C1CC1 [Example 231, N-(6-(5-bromo-6-fluoro-1H-indazol-4-yl)imidazo[1,2-a]pyridin-2-yl)cyclopropanecarboxamide]	> 1000
Cc1ccc2[nH]ncc2c1-c1ccc2nc(NC(=O)c3ccccc3)sc2c1 [Example 8, N-(6-(5-methyl-1H-indazol-4-yl)benzo[d]thiazol-2-yl)benzamide]	> 1000
Cc1c(F)cc2[nH]ncc2c1-c1ccc2nc(NC(=O)[C@@H]3C[C@@H]3F)sc2c1CCc1ccncc1 [Example 65, (1S,2S)-2-fluoro-N-(6-(6-fluoro-5-methyl-1H-indazol-4-yl)-7-(2-(pyridin-4-yl)ethyl)benzo[d]thiazol-2-yl)cyclopropane-1-carboxamide]	< 100
NC(=O)c1c(F)c(Cl)c(-c2ccc3nc(NC(=O)[C@@H]4C[C@@H]4F)sc3c2)c2cn[nH]c12 [Example 135, 5-chloro-6-fluoro-4-(2-((1S,2S)-2-fluorocyclopropane-1-carboxamido)benzo[d]thiazol-6-yl)-1H-indazole-7-carboxamide]	> 1000
